Tests used:
Type in all cases: cell-based, human
[1] = tested on: renin/prorenin receptor (RER); assay: Renin- and prorenin-mediated RER activation (RER-PLZF pathway) in HEK293 cells with aliskiren or siRNA
Protocol: (§1) For all cell culture studies immortalized human epithelial kidney cells (HEK293 cells) were used. […] Additional inhibition with 1 μM aliskiren was performed as indicated. 1 hour after pre-treatment with losartan±aliskiren cells were stimulated with either 5 nM renin, 5 nM prorenin, or the respective vehicle. Cells were harvested for mRNA expression analysis or determination of viable cell number and apoptosis after 3 or 24 hours, respectively. These experimental procedures have been described in detail previously (Schefe et al., 2006). All experiments were performed in independent triplicates.

[2] = tested on: renin/prorenin receptor (RER); assay: PI3K-p85α promoter luciferase reporter assay under renin stimulation; details: PLZF-overexpressing HEK293 cells
Protocol: The indicated cell types were seeded on day 1 in 12-well plates. 100 ng of indicated pGL3-basic constructs (encoding firefly luciferase) and 20 ng of phRL-null plasmid (encoding humanized Renilla luciferase for standardization of promoter activity; Promega) per well were transfected on day 2 at 60-80% confluency using GeneJuice (Merck Biosciences, Bad Soden, Germany) according to the manufacturer's protocol. Cells were harvested 48 hours after transfection using Passive Lysis Buffer (Promega). Reporter activities were measured in a Pharmingen Monolight 3010 luminometer (BD Biosciences, Erembodegem, Belgium) using the Dual-Luciferase Reporter Assay System (Promega). Promoter activity is expressed as relative luciferase activity (RLA) (Funke-Kaiser et al., 2003a). RLA data represent the mean±standard deviation of at least three single, parallel transfection experiments.
(§2) HEK293 cells were seeded in 24-well plates and transfected with either 100 ng of pCEP4-PLZF-myc expression vector, 50 ng of indicated pGL3-basic construct and 10 ng of phRL-null plasmid (for luciferase assay), or 100 ng of pCEP4-PLZF-myc alone (for PCR experiments) per well as described above. siRNA transfection, renin stimulation and determination of reporter activity were performed as described above, except for an exceeded renin stimulation period of 3 hours.

[3] = tested on: renin/prorenin receptor (RER); assay: PI3K-p85α mRNA by quantitative real-time PCR after renin/prorenin stimulation of HEK293 cells; details: HEK293 cells, regardless of PLZF expression level
Protocol: as §2
RNA isolation and cDNA synthesis were performed as described above. qPCR was performed applying a SYBR Green I reaction mix and run on a Stratagene Mx3000P (Stratagene, La Jolla, Calif., USA) using the following primers: […]
Data represents the mean expression level±standard deviation (standardized to 18S rRNA expression) calculated according to the ddCT method of at least three independent measurements. Equality of PCR efficiencies has been verified applying the program LinRegPCR (Ramakers et al. 2003) and ANOVA testing.
as §1

RER mRNA = assay: Down-regulation of RER mRNA by siRNA (real-time PCR); details: HEK293 cells
Protocol: For PLZF translocation experiments HEK293 cells were seeded on day 1 in 6-well plates. 250 ng of pCEP4-PLZF-myc expression vector per well were transfected on day 2 at 40-60% confluency using GeneJuice (Merck Biosciences, Bad Soden, Germany) according to the manufacturer's protocol. On day 3 the cells were transfected with 50 nM siRNA against the RER [5′-GCUCCGUAAUCGCCUGUUU (sense strand), (SEQ ID No. 38); 5′-AAACAGGCGAUUACGGAGC (antisense strand), (SEQ ID No. 39)] or GFP control siRNA (Eurogentec, Seraing, Belgium) using jetSI-ENDO (Eurogentec) following the standard procedure. On day 5, after 24 hours of starving in serum-free medium, cells were stimulated with 10 nM human recombinant renin (mammalian expression; kind gift from Dominik N. Müller, MDC Berlin) or vehicle (0.1% DMSO in PBS) for 2 hours. Western blot was performed with anti-c-myc antibody (mouse monoclonal, 9B11; 1:2,000; Cell Signalling) and horseradish peroxidase-conjugated anti-mouse antibody (rabbit polyclonal; 1:2,500; DAKO). Chemoluminescence was detected with ECL (Amersham, München, Germany), and subsequent exposition to Hyperfilm (Amersham). […]

RER protein = assay: Down-regulation of RER protein by siRNA (Western blot, densitometry); details: Western blot of total cell lysate
Protocol: For analysis of subcellular localization of RER, 9 μg (membrane) and 12 μg (cytosolic) protein were loaded per lane, separated in a 10% SDS-PAGE and transferred to a nitrocellulose membrane. Western blot analysis was performed with an antibody against human RER (corresponding ATP6AP2; goat polyclonal, ab5959, Abcam, Cambridge, UK) at a dilution of 0.5 μg/ml. Horseradish peroxidase-conjugated anti-goat antibody (rabbit polyclonal; 1:2,500; DAKO, Hamburg, Germany) was used as secondary antibody.
For PLZF translocation experiments HEK293 cells were seeded on day 1 in 6-well plates. 250 ng of pCEP4-PLZF-myc expression vector per well were transfected on day 2 at 40-60% confluency using GeneJuice (Merck Biosciences, Bad Soden, Germany) according to the manufacturer's protocol. On day 3 the cells were transfected with 50 nM siRNA against the RER [5′-GCUCCGUAAUCGCCUGUUU (sense strand), (SEQ ID No. 38); 5′-AAACAGGCGAUUACGGAGC (antisense strand), (SEQ ID No. 39)] or GFP control siRNA (Eurogentec, Seraing, Belgium) using jetSI-ENDO (Eurogentec) following the standard procedure. […] Chemoluminescence was detected with ECL (Amersham, München, Germany), and subsequent exposition to Hyperfilm (Amersham).

| Compound | influence on the effects of renin and prorenin (RER and PI3K-p85α transcription, proliferation, apoptosis) ([1]; pre-treatment with 1 μM aliskiren) | influence on renin-induced increase in PI3K-p85α promoter activity [2] | influence on renin induction of PI3K-p85α mRNA [3] | influence on transcriptional and cellular effects of prorenin stimulation ([1]; siRNA 24 hours before prorenin) | RER mRNA repressed to (RER mRNA; 50 nM siRNA) [%] | average reduction of RER mRNA (RER mRNA; siRNA transfected 24 hours before stimulation) [%] | RER protein reduced to (densitometric measurement, compared to control) (RER protein) |
| --- | --- | --- | --- | --- | --- | --- | --- |
| COCCCOc1cc(C[C@@H](C[C@H](N)[C@@H](O)C[C@H](C(=O)NCC(C)(C)C(N)=O)C(C)C)C(C)C)ccc1OC [aliskiren] | not affected |  |  |  |  |  |  |
| siRNA against the RER: siRNA 5′-GCUCCGUAAUCGCCUGUUU (sense), 5′-AAACAGGCGAUUACGGAGC (antisense), SEQ ID No. 38/39 (listed as RNA, chemistry not given here; listed as Homo sapiens) |  | abolished | abolished this induction | completely abolished | 29.8±5.2 | 81.1±4.5 | less than 10% |
